ChEMBL document CHEMBL1833908, “Hydrazidomycins, cytotoxic alkylhydrazides from Streptomycesatratus” (Bioorg Med Chem Lett, 2011)

How the values were obtained:
Type in all cases: functional, cell-based
SAOS-2 = assay: Cytotoxicity against human Saos2 cells by propidium iodide staining
TE-671 = assay: Cytotoxicity against human TE671 cells by propidium iodide staining
[1] = Cytotoxicity against human UXF 1138L cells by propidium iodide staining
[2] = Cytotoxicity against human CXF 269L cells by propidium iodide staining
[3] = Cytotoxicity against human BXF 1218L cells by propidium iodide staining
[4] = Cytotoxicity against human BXF 1352L cells by propidium iodide staining
[5] = Cytotoxicity against human DIFI cells by propidium iodide staining
HCT-116 = assay: Cytotoxicity against human HCT116 cells by propidium iodide staining
HT-29 = assay: Cytotoxicity against human HT-29 cells by propidium iodide staining
RKO = assay: Cytotoxicity against human RKO cells by propidium iodide staining
MKN-45 = assay: Cytotoxicity against human MKN45 cells by propidium iodide staining
[6] = Cytotoxicity against human GXF251L cells by propidium iodide staining; settings: GXF 251L
CAL-27 = assay: Cytotoxicity against human CAL27 cells by propidium iodide staining
[7] = Cytotoxicity against human LIXF 575L cells by propidium iodide staining
[8] = Cytotoxicity against human LXFA 289L cells by propidium iodide staining
[9] = Cytotoxicity against human LXFA 526L cells by propidium iodide staining
[10] = Cytotoxicity against human LXFA 629L cells by propidium iodide staining
[11] = Cytotoxicity against human LXFL 1121L cells by propidium iodide staining
[12] = Cytotoxicity against human LXFL 529L cells by propidium iodide staining
NCI-H460 = assay: Cytotoxicity against human NCI-H460 cells by propidium iodide staining
[13] = Cytotoxicity against human MAXF 401NL cells by propidium iodide staining
MCF7 = assay: Cytotoxicity against human MCF7 cells by propidium iodide staining
MDA-MB-231 = assay: Cytotoxicity against human MDA-MB-231 cells by propidium iodide staining
[14] = Cytotoxicity against human MEXF 1341L cells by propidium iodide staining
[15] = Cytotoxicity against human MEXF 276L cells by propidium iodide staining; settings: MEXF276L
[16] = Cytotoxicity against human MEXF 462NL cells by propidium iodide staining
[17] = Cytotoxicity against human OVXF 899L cells by propidium iodide staining
[18] = Cytotoxicity against human NIH:OVCAR3 cells by propidium iodide staining; settings: OVCAR-3
[19] = Cytotoxicity against human PAXF 1657L cells by propidium iodide staining
[20] = Cytotoxicity against human PAXF 546L cells by propidium iodide staining
PANC-1 = assay: Cytotoxicity against human PANC1 cells by propidium iodide staining
CWR22R = assay: Cytotoxicity against human 22Rv1 cells by propidium iodide staining
DU-145 = assay: Cytotoxicity against human DU145 cells by propidium iodide staining
LNCaP = assay: Cytotoxicity against human LNCAP cells by propidium iodide staining
[21] = Cytotoxicity against human PC3M cells by propidium iodide staining; settings: PC-3M
[22] = Cytotoxicity against human PXF 1118L cells by propidium iodide staining
[23] = Cytotoxicity against human PXF 1752L cells by propidium iodide staining
[24] = Cytotoxicity against human PXF 698L cells by propidium iodide staining
[25] = Cytotoxicity against human RXF 1781L cells by propidium iodide staining
[26] = Cytotoxicity against human RXF 393NL cells by propidium iodide staining
[27] = Cytotoxicity against human RXF 486L cells by propidium iodide staining
T-24 = assay: Cytotoxicity against human T24 cells by propidium iodide staining

CCCCCCCCCCCC/C=C\N(NC(=O)COC)C(=O)CCCCCCCCC [HYDRAZIDOMYCIN A]
IC50 (SAOS-2): 1.82 µM
IC50 (TE-671): 0.898 µM
IC50 [1]: 0.893 µM
IC50 [2]: 0.222 µM
IC50 [3]: 2.43 µM
IC50 [4]: 2.3 µM
IC50 [5]: 0.782 µM
IC50 (HCT-116): 0.758 µM
IC50 (HT-29): 0.464 µM
IC50 (RKO): 0.598 µM
IC50 (MKN-45): 0.676 µM
IC50 [6]: 0.144 µM
IC50 (CAL-27): 0.716 µM
IC50 [7]: 0.349 µM
IC50 [8]: 1.1 µM
IC50 [9]: 1.65 µM
IC50 [10]: 0.247 µM
IC50 [11]: 2.31 µM
IC50 [12]: 2.12 µM
IC50 (NCI-H460): 2.31 µM
IC50 [13]: 0.471 µM
IC50 (MCF7): 0.782 µM
IC50 (MDA-MB-231): 0.286 µM
IC50 [14]: 0.936 µM
IC50 [15]: 1.59 µM
IC50 [16]: 0.765 µM
IC50 [17]: 1.34 µM
IC50 [18]: 1.1 µM
IC50 [19]: 1.91 µM
IC50 [20]: 0.66 µM
IC50 (PANC-1): 0.933 µM
IC50 (CWR22R): 0.882 µM
IC50 (DU-145): 0.539 µM
IC50 (LNCaP): 0.957 µM
IC50 [21]: 0.105 µM
IC50 [22]: 2.4 µM
IC50 [23]: 1.19 µM
IC50 [24]: 0.982 µM
IC50 [25]: 0.982 µM
IC50 [26]: 1.11 µM
IC50 [27]: 1.62 µM

CCCCCCC/C=C\CCCCC/C=C\N(NC(=O)COC)C(=O)CCCCCCCCC [HYDRAZIDOMYCIN B]
IC50 (SAOS-2): 18 µM
IC50 (TE-671): 18.2 µM
IC50 [1]: 18.2 µM
IC50 [2]: 5.94 µM
IC50 (T-24): 9.19 µM
IC50 [3]: 19.3 µM
IC50 [4]: 15.1 µM
IC50 [5]: 10.2 µM
IC50 (HCT-116): 19.4 µM
IC50 (HT-29): 6.54 µM
IC50 (RKO): 13.8 µM
IC50 (MKN-45): 11.6 µM
IC50 [6]: 1.54 µM
IC50 (CAL-27): 12.7 µM
IC50 [7]: 7.39 µM
IC50 [8]: 12.6 µM
IC50 [9]: 7.07 µM
IC50 [10]: 1.41 µM
IC50 [11]: 17.4 µM
IC50 [12]: 17.3 µM
IC50 (NCI-H460): 17.2 µM
IC50 [13]: 0.876 µM
IC50 (MCF7): 11 µM
IC50 (MDA-MB-231): 5.53 µM
IC50 [14]: 14.9 µM
IC50 [15]: 18.3 µM
IC50 [16]: 20.4 µM
IC50 [17]: 19.1 µM
IC50 [18]: 18.5 µM
IC50 [19]: 20.4 µM
IC50 [20]: 10.8 µM
IC50 (PANC-1): 10 µM
IC50 (CWR22R): 15.6 µM
IC50 (DU-145): 7.22 µM
IC50 (LNCaP): 14.1 µM
IC50 [21]: 1.73 µM
IC50 [22]: 30 µM
IC50 [23]: 12.7 µM
IC50 [24]: 14.3 µM
IC50 [25]: 10.2 µM
IC50 [26]: 11 µM
IC50 [27]: 21.2 µM
